Results from patent US9447051B2, “Diaminopyrimidines and uses thereof” (AbbVie inc., priority 2012, dated 2016).

Test system: RSV (Group A, Long Strain)
Test: Antiviral (RSV) assay: cytopathetic effect (CPE) protection assay in HEp-2 cells, MTT readout
Type: cell-based, human respiratory syncytial virus (RSV)
Settings: human respiratory syncytial virus, HEp-2, 96 h, Table 1, 0.2 MOI RSV, 4 days incubation, protection from CPE
Description: HEp-2 cells and RSV (Group A, Long Strain) were obtained from the American Type Culture Collection (Manassas, Va.). A cytopathetic effect (CPE) protection assay was performed to determine the ability of a compound to protect the cells from viral infection and thus the CPE induced by viral infection. 96-well plates were first seeded with 3×10^3 HEp-2 cells per well in Dulbecco's modified Eagle's medium (DMEM) containing 10% fetal bovine serum (FBS). One day after the cells were seeded, they were preincubated with serial dilutions of compounds prepared in 100 μL assay medium (DMEM mixed with F12 medium at a 1:1 ratio, supplemented with 2% FBS and 1 mM sodium pyruvate) for 1 hour at 37° C. 100 μL of assay medium containing 0.2 multiplicity of infection (MOI) of RSV was then added to each well of cells. In addition to wells containing infected cells incubated with compounds, each plate also contained replicates of two kinds of controls: (1) Virus control contained cells infected with 0.2 MOI of RSV in assay medium, (2) Uninfected cell control contained cells incubated with assay medium only. After 4 days of incubation at 37° C., the viability of cells was assessed using MTT (Thiazolyl blue tetrazolium bromide, Sigma). A stock solution of MTT, at a concentration of 4 mg/mL in phosphate-buffered saline, was added to all wells at 25 μL per well. Plates were further incubated for 4 hours, and each well was then treated with 50 μL of a solution containing 20% sodium dodecyl sulfate (SDS) and 0.02 N HCl. After an overnight incubation, the plates were measured on a BioTek® microtiter plate reader at wavelengths of 570 nm and 650 nm. The MTT detection is based on the fact that viable (uninfected) cells can reduce the tetrazolium salts into colored formazan products, which can then be quantitated by spectrometry. […] Compounds were tested to determine both their antiviral and toxicity to determine their therapeutic window. Determination of the EC50 and TD50 of these active compounds were repeated one additional time to confirm the window.

First: Cc1nc(NCc2ccccn2)nc(NC2CCCCC2O)c1C (centres unmarked) [Example 42, 2-({5,6-dimethyl-2-[(pyridin-2-ylmethyl)amino]pyrimidin-4-yl}amino)cyclohexanol]
Second: Cc1nc(NCc2ccccn2)nc(NC2CCC2)c1C [Example 47, N^4-cyclobutyl-5,6-dimethyl-N^2-(pyridin-2-ylmethyl)pyrimidine-2,4-diamine]
The EC50 of the first is lower: 300 nM for the first, greater than 5300 nM for the second. The first is the more potent here.

First: Cc1nc(NCc2ccccn2)nc(NCC2CCCC2)c1C [Example 44, N^4-(cyclopentylmethyl)-5,6-dimethyl-N^2-(pyridin-2-ylmethyl)pyrimidine-2,4-diamine]
Second: Cc1nc(NCc2ccccn2)nc(NC2CCCCCC2)c1C [Example 45, N^4-cycloheptyl-5,6-dimethyl-N^2-(pyridin-2-ylmethyl)pyrimidine-2,4-diamine]
The EC50 of the first is 1300-fold higher: 24000 nM for the first, 18 nM for the second. The second is the more potent here.

`Cc1nc(NCc2ccccn2)nc(NC2Cc3ccccc3C2)c1C` [Example 46, N^4-(2,3-dihydro-1H-inden-2-yl)-5,6-dimethyl-N^2-(pyridin-2-ylmethyl)pyrimidine-2,4-diamine] and `Cc1nc(NCc2ccccn2)nc(Nc2ccccc2F)c1C` [Example 51, N^4-(2-fluorophenyl)-5,6-dimethyl-N^2-(pyridin-2-ylmethyl)pyrimidine-2,4-diamine] are the same in EC50: 320 nM for the first, 320 nM for the second.

First: CCC(CC)Nc1nc(NCc2ccccn2)nc(C)c1C [Example 48, 5,6-dimethyl-N^4-(pentan-3-yl)-N^2-(pyridin-2-ylmethyl)pyrimidine-2,4-diamine]
Second: Cc1nc(NCc2ccccn2)nc(Nc2ccnn2C)c1C [Example 74, 5,6-dimethyl-N^4-(1-methyl-1H-pyrazol-5-yl)-N^2-(pyridin-2-ylmethyl)pyrimidine-2,4-diamine]
The EC50 of the first is 2.4-fold lower: 270 nM for the first, 650 nM for the second. The first is the more potent here.

Going from `Cc1nc(NCc2ccccn2)nc(Nc2cccc(F)c2)c1C` [Example 49, N^4-(3-fluorophenyl)-5,6-dimethyl-N^2-(pyridin-2-ylmethyl)pyrimidine-2,4-diamine] to `Cc1nc(NCc2ccccn2)nc(Nc2cccc(Cl)c2)c1C` [Example 65, N^4-(3-chlorophenyl)-5,6-dimethyl-N^2-(pyridin-2-ylmethyl)pyrimidine-2,4-diamine], the EC50 falls from 310 nM to 40 nM (7.8-fold).

`Cc1nc(NCc2ccccn2)nc(Nc2ccc(F)cc2)c1C` [Example 50, N^4-(4-fluorophenyl)-5,6-dimethyl-N^2-(pyridin-2-ylmethyl)pyrimidine-2,4-diamine] and `Cc1nc(NCc2ccccn2)nc(Nc2ccc(Cl)cc2)c1C` [Example 62, N^4-(4-chlorophenyl)-5,6-dimethyl-N^2-(pyridin-2-ylmethyl)pyrimidine-2,4-diamine] are within 1.5-fold of each other in EC50: 100 nM for the first, 94 nM for the second.

First: Cc1nc(NCc2ccccn2)nc(Nc2ccccc2)c1C [Example 52, 5,6-dimethyl-N^4-phenyl-N^2-(pyridin-2-ylmethyl)pyrimidine-2,4-diamine]
Second: Cc1nc(NCc2ccccn2)nc(Nc2ccccc2Cl)c1C [Example 66, N^4-(2-chlorophenyl)-5,6-dimethyl-N^2-(pyridin-2-ylmethyl)pyrimidine-2,4-diamine]
The EC50 of the first is 7.9-fold higher: 270 nM for the first, 34 nM for the second. The second is the more potent here.

First: Cc1nc(NCc2ccccn2)nc(Nc2cccc(OC(F)(F)F)c2)c1C [Example 53, 5,6-dimethyl-N^2-(pyridin-2-ylmethyl)-N^4-[3-(trifluoromethoxy)phenyl]pyrimidine-2,4-diamine]
Second: Cc1nc(NCc2ccccn2)nc(Nc2cccc(C(F)(F)F)c2)c1C [Example 54, 5,6-dimethyl-N^2-(pyridin-2-ylmethyl)-N^4-[3-(trifluoromethyl)phenyl]pyrimidine-2,4-diamine]
The EC50 of the first is 1.5-fold higher: 38 nM for the first, 25 nM for the second.

First: Cc1nc(NCc2ccccn2)nc(Nc2c(F)cccc2F)c1C [Example 55, N^4-(2,6-difluorophenyl)-5,6-dimethyl-N^2-(pyridin-2-ylmethyl)pyrimidine-2,4-diamine]
Second: Cc1cccc(F)c1Nc1nc(NCc2ccccn2)nc(C)c1C [Example 72, N^4-(2-fluoro-6-methylphenyl)-5,6-dimethyl-N^2-(pyridin-2-ylmethyl)pyrimidine-2,4-diamine]
The EC50 of the first is 1.8-fold higher: 140 nM for the first, 78 nM for the second.

Compared with `Cc1nc(NCc2ccccn2)nc(Nc2ccc(OC(F)(F)F)cc2)c1C` [Example 56, 5,6-dimethyl-N^2-(pyridin-2-ylmethyl)-N^4-[4-(trifluoromethoxy)phenyl]pyrimidine-2,4-diamine], `Cc1nc(NCc2ccccn2)nc(Nc2ccc(C(F)(F)F)cc2)c1C` [Example 57, 5,6-dimethyl-N^2-(pyridin-2-ylmethyl)-N^4-[4-(trifluoromethyl)phenyl]pyrimidine-2,4-diamine] is 1.7-fold lower in EC50: 400 nM for the first, 230 nM for the second. The second is the more potent here.

Compared with `Cc1nc(NCc2ccccn2)nc(Nc2ccc(F)c(F)c2)c1C` [Example 58, N^4-(3,4-difluorophenyl)-5,6-dimethyl-N^2-(pyridin-2-ylmethyl)pyrimidine-2,4-diamine], `Cc1nc(NCc2ccccn2)nc(Nc2cc(F)ccc2F)c1C` [Example 60, N^4-(2,5-difluorophenyl)-5,6-dimethyl-N^2-(pyridin-2-ylmethyl)pyrimidine-2,4-diamine] is 1.6-fold higher in EC50: 63 nM for the first, 100 nM for the second.

Going from `Cc1nc(NCc2ccccn2)nc(Nc2ccccc2OC(F)(F)F)c1C` [Example 59, 5,6-dimethyl-N^2-(pyridin-2-ylmethyl)-N^4-[2-(trifluoromethoxy)phenyl]pyrimidine-2,4-diamine] to `Cc1ccccc1Nc1nc(NCc2ccccn2)nc(C)c1C` [Example 67, 5,6-dimethyl-N^4-(2-methylphenyl)-N^2-(pyridin-2-ylmethyl)pyrimidine-2,4-diamine], the EC50 falls from 30 nM to 7 nM (4.3-fold). The second is the more potent here.

Going from `Cc1nc(NCc2ccccn2)nc(Nc2ccc3c(c2)OCO3)c1C` [Example 61, N^4-(1,3-benzodioxol-5-yl)-5,6-dimethyl-N^2-(pyridin-2-ylmethyl)pyrimidine-2,4-diamine] to `Cc1cccc(Nc2nc(NCc3ccccn3)nc(C)c2C)c1` [Example 69, 5,6-dimethyl-N^4-(3-methylphenyl)-N^2-(pyridin-2-ylmethyl)pyrimidine-2,4-diamine], the EC50 rises from 40 nM to 110 nM (2.8-fold).

Compared with `Cc1ccc(Nc2nc(NCc3ccccn3)nc(C)c2C)cc1` [Example 63, 5,6-dimethyl-N^4-(4-methylphenyl)-N^2-(pyridin-2-ylmethyl)pyrimidine-2,4-diamine], `Cc1cccc(C)c1Nc1nc(NCc2ccccn2)nc(C)c1C` [Example 68, N^4-(2,6-dimethylphenyl)-5,6-dimethyl-N^2-(pyridin-2-ylmethyl)pyrimidine-2,4-diamine] is 5.8-fold lower in EC50: 52 nM for the first, 9 nM for the second.

Going from `Cc1nc(NCc2ccccn2)nc(Nc2cc(F)cc(F)c2)c1C` [Example 64, N^4-(3,5-difluorophenyl)-5,6-dimethyl-N^2-(pyridin-2-ylmethyl)pyrimidine-2,4-diamine] to `Cc1cc(F)c(F)cc1Nc1nc(NCc2ccccn2)nc(C)c1C` [Example 73, N^4-(4,5-difluoro-2-methylphenyl)-5,6-dimethyl-N^2-(pyridin-2-ylmethyl)pyrimidine-2,4-diamine], the EC50 falls from 40 nM to 24 nM (1.7-fold).

First: Cc1nc(NCc2ccccn2)nc(NC2CCS(=O)(=O)C2)c1C (centres unmarked) [Example 70, N^4-(1,1-dioxidotetrahydrothiophen-3-yl)-5,6-dimethyl-N^2-(pyridin-2-ylmethyl)pyrimidine-2,4-diamine]
Second: Cc1nc(NCc2ccccn2)nc(NC2CCC(F)(F)C2)c1C (centres unmarked) [Example 78, N^4-(3,3-difluorocyclopentyl)-5,6-dimethyl-N^2-(pyridin-2-ylmethyl)pyrimidine-2,4-diamine]
The EC50 of the first is 5-fold higher: 950 nM for the first, 190 nM for the second. The second is the more potent here.

Going from `Cc1ccc(F)cc1Nc1nc(NCc2ccccn2)nc(C)c1C` [Example 71, N^4-(5-fluoro-2-methylphenyl)-5,6-dimethyl-N^2-(pyridin-2-ylmethyl)pyrimidine-2,4-diamine] to `Cc1cc(F)ccc1Nc1nc(NCc2ccccn2)nc(C)c1C` [Example 75, N^4-(4-fluoro-2-methylphenyl)-5,6-dimethyl-N^2-(pyridin-2-ylmethyl)pyrimidine-2,4-diamine], the EC50 falls from 40 nM to 26 nM (1.5-fold). The second is the more potent here.

Going from `Cc1nc(NCc2ccccn2)nc(Nc2cccc(F)c2C)c1C` [Example 76, N^4-(3-fluoro-2-methylphenyl)-5,6-dimethyl-N^2-(pyridin-2-ylmethyl)pyrimidine-2,4-diamine] to `Cc1nc(NCc2ccccn2)nc(NC2CCCC(F)(F)C2)c1C` (centres unmarked) [Example 80, N^4-(3,3-difluorocyclohexyl)-5,6-dimethyl-N^2-(pyridin-2-ylmethyl)pyrimidine-2,4-diamine], the EC50 rises from 25 nM to 190 nM (7.6-fold).

Compared with `Cc1nc(NCc2ccccn2)nc(N(C)C2CCCCC2)c1C` [Example 77, N^4-cyclohexyl-N^4,5,6-trimethyl-N^2-(pyridin-2-ylmethyl)pyrimidine-2,4-diamine], `Cc1nc(NCc2ccccn2)nc(N[C@H]2CC[C@H](O)CC2)c1C` [Example 79, trans-4-({5,6-dimethyl-2-[(pyridin-2-ylmethyl)amino]pyrimidin-4-yl}amino)cyclohexanol] is 1.9-fold lower in EC50: 1200 nM for the first, 620 nM for the second. The second is the more potent here.
